In patent US20240245658A1, “TAAR1 AND SEROTONIN MODULATORS, AND PHARMACEUTICAL COMPOSITIONS, AND METHODS OF USE THEREOF” (Sunovion Pharmaceuticals Inc., priority 2021, published 2024) one finds IC50 and EC50 data, which are given here for eight compounds.

Common to all, as to format: cell-based
One assay addresses T1, human 5-HT2A receptor (Homo sapiens, UniProt P28223).
T1 construct: host or cells: CHO-K1
Put plainly: 5HT2A Antagonism Assay (Euroscreen FAST-05051), IP-One HTRF. Conditions: CHO-K1 cells expressing human 5-HT2A, reference agonist at EC80, IP-One. The gist of the method: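 CHO-K1 cells expressing receptor, 20,000/well, co-incubated with test compound and reference agonist at its EC80 for 60 min at 37 °C. IP1 accumulation read by HTRF after ~1 h detection at room temperature. Compounds tested in duplicate at 0.3–10,000 nM.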

Another assay concerns the target T2, human 5-HT7 receptor (Homo sapiens, UniProt P34969).
T2 construct: host or cells: CHO-K1
Put plainly: 5HT7 Antagonism Assay (Euroscreen FAST-0499C), cAMP HTRF. Conditions: CHO-K1 cells expressing human 5-HT7, reference agonist at EC80, cAMP HTRF. Summed up: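 CHO-K1 cells expressing human 5-HT7, 3000 per well in Krebs-Ringer HEPES with 1 mM IBMX, were exposed for 30 minutes at room temperature to compound plus reference agonist at its EC80. cAMP was read by HTRF after 1 hour; compounds were tested in duplicate from 0.3 to 10,000 nM.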
(Time-resolved FRET reads energy transfer from a long-lived donor to a nearby acceptor.)

Another assay deals with T3, human TAAR1 receptors (Homo sapiens, UniProt Q96RJ0).
T3 construct: host or cells: CHO-K1
T3 sequence (Q96RJ0 1-339): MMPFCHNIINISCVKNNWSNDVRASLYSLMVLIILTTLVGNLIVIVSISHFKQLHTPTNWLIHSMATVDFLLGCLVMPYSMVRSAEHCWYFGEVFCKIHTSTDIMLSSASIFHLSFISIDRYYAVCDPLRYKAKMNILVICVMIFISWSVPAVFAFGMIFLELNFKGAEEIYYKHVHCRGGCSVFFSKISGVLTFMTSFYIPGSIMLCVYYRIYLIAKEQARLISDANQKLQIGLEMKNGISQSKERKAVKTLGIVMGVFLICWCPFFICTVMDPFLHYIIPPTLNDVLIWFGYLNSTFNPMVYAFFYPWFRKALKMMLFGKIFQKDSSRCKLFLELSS
Put plainly: TAAR1 Agonism Assay: cAMP HTRF assay for Gs coupled receptor TAAR1 (Euroscreen FAST-0987C). Conditions: CHO-K1 cells expressing human TAAR1, cAMP HTRF. Summed up:
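cAMP accumulation detected by HTRF fluorescence ratio, reagents added in lysis buffer and incubated 1 h at about room temperature. Beforehand, cells (about 3,000 per well) sat with test compound at ten concentrations from 0.3 to 10,000 nM in duplicate for roughly 30 min at about room temperature; tyramine dose-response run alongside.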

pEC50, pIC50: −log10 of the molar value. Like-named read-outs stand apart in the source and are kept apart here.

T2 sequence (P34969 whole entry): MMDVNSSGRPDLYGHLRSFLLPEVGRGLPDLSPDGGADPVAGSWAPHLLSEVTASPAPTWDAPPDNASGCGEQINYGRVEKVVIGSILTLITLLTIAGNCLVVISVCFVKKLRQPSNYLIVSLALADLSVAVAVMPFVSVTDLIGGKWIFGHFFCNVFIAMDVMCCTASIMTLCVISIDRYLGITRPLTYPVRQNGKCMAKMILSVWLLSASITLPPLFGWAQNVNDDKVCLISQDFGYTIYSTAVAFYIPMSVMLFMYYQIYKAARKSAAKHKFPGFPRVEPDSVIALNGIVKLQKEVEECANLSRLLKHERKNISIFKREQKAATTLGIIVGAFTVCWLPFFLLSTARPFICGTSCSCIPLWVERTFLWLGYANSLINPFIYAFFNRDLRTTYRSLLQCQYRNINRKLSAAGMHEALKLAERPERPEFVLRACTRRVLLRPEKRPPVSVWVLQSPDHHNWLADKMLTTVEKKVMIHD
T1 sequence (P28223 whole entry): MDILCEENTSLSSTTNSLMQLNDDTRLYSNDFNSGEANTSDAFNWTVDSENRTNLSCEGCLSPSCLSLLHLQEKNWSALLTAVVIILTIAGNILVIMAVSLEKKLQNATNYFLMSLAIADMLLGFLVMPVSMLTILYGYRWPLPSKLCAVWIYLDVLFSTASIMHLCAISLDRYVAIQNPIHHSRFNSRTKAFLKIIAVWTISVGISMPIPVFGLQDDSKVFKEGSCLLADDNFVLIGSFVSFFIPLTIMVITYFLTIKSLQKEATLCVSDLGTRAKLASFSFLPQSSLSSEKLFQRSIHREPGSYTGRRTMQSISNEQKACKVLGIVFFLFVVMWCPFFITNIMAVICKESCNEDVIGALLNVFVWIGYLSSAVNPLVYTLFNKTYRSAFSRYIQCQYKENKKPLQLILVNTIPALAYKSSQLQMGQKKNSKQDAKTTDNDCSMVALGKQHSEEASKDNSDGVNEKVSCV

For the compound `CNC[C@H]1Oc2ccccc2Oc2ccncc21` (single isomer, unassigned) [Compound 56, (S*)-1-(11H-benzo[2,3][1,4]dioxepino[6,5-c]pyridin-11-yl)-N-methylmethanamine], the pIC50 at human 5-HT2A receptor (read-out: 5-HT2A (IC50)) is below 5.00; at human 5-HT7 receptor, at most 5.00. Also, the pEC50 on human TAAR1 receptors was below 5.00.

Consider `CNCC1Cc2c(F)cccc2Oc2ccccc21` (single isomer, unassigned) [Compound 82, (R*)-1-(1-fluoro-10,11-dihydrodibenzo[b,f]oxepin-10-yl)-N-methylmethanamine], for which the values for the pIC50 at human 5-HT2A receptor (5-HT2A (IC50)) and at human 5-HT7 receptor were above 6.00 and 5.00 to 6.00, respectively. This compound also gave a negative logarithm of the EC50 (pEC50) at human TAAR1 receptors above 6.00.

Turning to `CNCC1Cc2ccccc2Oc2cccnc21` (single isomer, unassigned) [Compound 5, (S*)-1-(10,11-dihydrobenzo[6,7]oxepino[3,2-b]pyridin-11-yl)-N-methylmethanamine], the pIC50 on human 5-HT2A receptor (5-HT2A (IC50)) and at human 5-HT7 receptor was above 6.00 throughout. Further, at human TAAR1 receptors, the negative logarithm of the EC50 (pEC50) was above 6.00.

Take `CN(C)CC1Cc2ccccc2Oc2cccnc21` (single isomer, unassigned) [Compound 111, (R*)-1-(10,11-dihydro-benzo[6,7]oxepino[3,2-b]pyridin-11-yl)-N,N-dimethylmethanamine]: the pIC50 is 5.00 to 6.00 on human 5-HT2A receptor (5-HT2A (IC50)) and at most 5.00 at human 5-HT7 receptor. On human TAAR1 receptors, this compound gave a pEC50 above 6.00.

On to `CCc1ccc2c(n1)C(CN)Cc1ccccc1O2` (single isomer, unassigned) [Compound 151, (R*)-(2-ethyl-10,11-dihydrobenzo[6,7]oxepino[3,2-b]pyridin-11-yl)methanamine], for which the values for the pIC50 on human 5-HT2A receptor (5-HT2A (IC50)) and on human 5-HT7 receptor were above 6.00 and at most 5.00, respectively. The same compound gave a pEC50 at human TAAR1 receptors above 6.00.

With `NCC1Cc2c(Cl)cccc2Oc2cccnc21` (single isomer, unassigned) [Compound 144, (S*)-(9-chloro-10,11-dihydrobenzo[6,7]oxepino[3,2-b]pyridin-11-yl)methanamine], the pIC50 at human 5-HT2A receptor (5-HT2A (IC50)) was above 6.00; on human 5-HT7 receptor it was at most 5.00. At human TAAR1 receptors, the pEC50 was above 6.00.

For `NCC1Cc2ncccc2Oc2ccc(Cl)cc21` (single isomer, unassigned) [Compound 167, (R*)-(8-chloro-10,11-dihydrobenzo[6,7]oxepino[3,2-b]pyridin-10-yl)methanamine], the pIC50 on human 5-HT2A receptor (5-HT2A (IC50)) is 5.00 to 6.00; at human 5-HT7 receptor, at most 5.00. The negative logarithm of the EC50 (pEC50) on human TAAR1 receptors is above 6.00.

Take `CNC[C@H]1c2ncccc2Oc2ccccc2[C@@H]1C` (stereo in doubt) [Compound 119, ((10R*,11S*)-10-methyl-10,11-dihydrobenzo[6,7]oxepino[3,2-b]pyridin-11-yl)-N-methylmethanamine]: the pIC50 is 5.00 to 6.00 at human 5-HT2A receptor (5-HT2A (IC50)) and at most 5.00 on human 5-HT7 receptor. In addition, the pEC50 on human TAAR1 receptors is 5.00 to 6.00.

By pIC50 is commonly meant −log10 of the IC50, conventionally taken in molar units. The pEC50 is the negative decadic logarithm of the EC50, by convention in mol/L. Low readings indicate a large EC50, high ones a small EC50.
